Data on one compound can be found in publication PMC8482815, “Targeting Host Glycolysis as a Strategy for Antimalarial Development” (Frontiers in Cellular and Infection Microbiology, 2021).

Each structure is given as a SMILES string. “Also recorded” adds a separate entry of the source. Where two headings read alike, the source gives them in different places.

On the set-up of data set [1]: method as in Lin et al., 2020. The following applies: ref Lin et al., 2020; cited from earlier work.
Data set [2] deals with P. falciparum K1 (chloroquine and sulfadoxine-pyrimethamine resistant). Put plainly: Plasmodium falciparum growth inhibition assay, drug-resistant line K1. In kind it is cell-based. The conditions noted are these: K1, read-out: EC50 (nM), P. falciparum K1. As for the experimental part:
(§1) Banked blood (Saint Louis Children’s Hospital) and fresh blood [healthy donors] was washed and stored at 50% hematocrit at 4°C up to 1 month past the clinical expiration date and collection date, respectively. Parasite strains provided by the Malaria Research and Reference Reagent Resource Center (MR4) as follows: 3D7 (MRA-102); K1 (MRA-159); D10 (MRA-201); and IPC-5202 (MRA-1240). […]
(§2) Asynchronous cultures diluted to 1% parasitemia in 100μL wells were subjected to drug dilutions, solvent controls, and untreated uninfected erythrocyte controls in technical duplicates. Following a three-day incubation, DNA content was quantified using Picogreen (Life Technologies), as previously described ([Corbett et al., 2004]). Half-maximal effective concentrations (EC50) were determined from nonlinear regression of three biological replicates (GraphPad Prism). […]
(§3) Supplemental Table 5. […] Half-maximal inhibitor concentrations (EC50s) were determined for drug resistant malaria parasites and compared to the sensitive 3D7 strain. The respective EC50s are calculated from each of the independent biological replicates using a non-linear regression of the log of the inhibitor concentration with data from each technical replicate normalized to maximal and minimal growth using the software package GraphPad Prism. […]
(§4) means ± s.e.m calculated from three biological replicates.

For data set [3], the system named is P. falciparum D10 (mefloquine resistant). Put plainly: Plasmodium falciparum growth inhibition assay, drug-resistant line D10. In kind it is cell-based. The conditions noted are these: D10, read-out: EC50 (nM), P. falciparum D10. The protocol: as §1, §2, §3, §4
The next data set relates to P. berghei ANKA. It counts as in vivo, Swiss Webster mice. The conditions noted are these: 2DG 200 mg/kg, POM-HEX 30 mg/kg. The protocol: (§5) Groups of five female Swiss-Webster mice were injected intraperitoneally (i.p.) with 10^3 luciferase-expressing P. berghei ANKA parasites ([Franke-Fayard et al., 2008]). Forty-eight hours post infection, mice were injected i.p. daily for five days with either 200µL of 2% methylcellulose/0.5% Tween80, 40mg/kg chloroquine, 100mg/kg HEX, 30mg/kg POM-HEX, or 5mg/kg POM-SF. Enolase inhibitors dosing were selected as approximately 3-fold lower than the maximum acutely tolerated dose for each compound by i.p. injection. Day 7 post-infection, mice were injected with 150mg/kg D-luciferin potassium salt in PBS (GoldBio) and imaged on an IVIS 100 and parasite burden assessed (Xenogen LivingImage).
The glucose mimetic 2-DG and enolase inhibitors POM-HEX, and HEX were evaluated in the P. berghei mouse model of cerebral malarial, as previously described ([Wang et al., 2018]). Briefly, in addition to groups of mice (n = 5) dosed as described above for POM-HEX and HEX, 2-DG was administered to an additional group (n = 5) at 200mg/kg twice daily and all were monitored for survival, parasitemia (blood smear Giemsa), and clinical signs of cerebral malaria (paralysis, deviation of the head, ataxia, convulsions, and coma) over 15 days.

The next data set deals with human erythrocytes. Kind of data set: Detection and quantification of MetHb formation in cultured erythrocytes. The conditions noted are these: Homo sapiens, Erythrocyte, MetHb formation, mean ± s.e.m., 500 = highest concentration tested, EC50 not resolved. In kind it is cell-based. The protocol: (§6) Banked blood (Saint Louis Children’s Hospital) and fresh blood [healthy donors] was washed and stored at 50% hematocrit at 4°C up to 1 month past the clinical expiration date and collection date, respectively. Parasite strains provided by the Malaria Research and Reference Reagent Resource Center (MR4) as follows: 3D7 (MRA-102); K1 (MRA-159); D10 (MRA-201); and IPC-5202 (MRA-1240). Unless indicated, erythrocytes were cultured as previously described at 2% hematocrit in complete media (incomplete media supplemented with 27mM sodium bicarbonate, 11mM glucose, 5mM HEPES, 1mM sodium pyruvate, 0.37mM hypoxanthine, 0.01mM thymidine, 10µg/mL gentamicin, and 0.5% Albumax I (Thermo-Fisher) under 5% O2/5% CO2/90% N2 atmosphere at 37°C ([Guggisberg et al., 2014]).
MetHb was detected by measuring absorbance in the 630-640nm range, which is specific from other hemoglobin subforms (oxyhemoglobin, deoxyhemoglobin, and carboxyhemoglobin). Supernatants were removed and erythrocyte pellets were fully lysed and diluted, as described above. The absorption peak for oxyhemoglobin (575nm) and MetHb (630nm) were measured and the EC50 of MetHb formation was determined using non-linear regression analysis (GraphPad Prism).

The test system of data set [4] is P. falciparum IPC-5202 (chloroquine and artemisinin resistant). Kind of data set: Plasmodium falciparum growth inhibition assay, drug-resistant line IPC-5202. In kind it is cell-based. The following applies: read-out: EC50 (nM), P. falciparum IPC-5202. As for the experimental part: as §1, §2, §3, §4
A further data set relates to P. falciparum strain 3D7. Put plainly: Plasmodium falciparum growth inhibition assay (Picogreen DNA content, three-day incubation). In kind it is cell-based. The following applies: for EC50: Plasmodium falciparum, P. falciparum growth, mean ± s.e.m. As for the experimental part: as §6
Asynchronous cultures diluted to 1% parasitemia in 100μL wells were subjected to drug dilutions, solvent controls, and untreated uninfected erythrocyte controls in technical duplicates. Following a three-day incubation, DNA content was quantified using Picogreen (Life Technologies), as previously described ([Corbett et al., 2004]). Half-maximal effective concentrations (EC50) were determined from nonlinear regression of three biological replicates (GraphPad Prism).

Data set [5] relates to luciferase-expressing P. berghei ANKA parasites. Put plainly: In vivo efficacy against blood stage parasite burden (luciferase imaging). Set-up: species or system Swiss-Webster mice. The conditions noted are these: i.p. daily for five days; 30mg/kg POM-HEX, 5mg/kg POM-SF. The protocol: as §5

As to `CC(C)(C)C(=O)OCOP(=O)(OCOC(=O)C(C)(C)C)C1CCCN(O)C1=O` (stereo not shown) [POM-HEX], the “conversion in mouse plasma (in words)” value in data set [1] is “rapidly converted to Hemi-POM-HEX”. Besides, the 50% effective concentration (EC50) (commonly the concentration needed to bring the measured effect to its halfway point) in data set [2] was 1110 ± 530 nM; in data set [3], 1430 ± 540 nM; with human erythrocytes (absence of 1mM pyruvate, read-out: MetHb EC50 - pyruvate), 1200 ± 190 nM; in the data set on human erythrocytes (presence of 1mM pyruvate, read-out: MetHb EC50 + pyruvate) it was 1400 ± 110 nM; in data set [4] it was 966 ± 442 nM; in the data set on P. falciparum strain 3D7 (3D7, 72 h, presence of 1mM pyruvate, read-out: Parasite EC50 + pyruvate), 910 ± 150 nM. Further, the EC50 in the data set with P. falciparum strain 3D7 (3D7, absence of 1mM pyruvate, 500 = highest concentration tested, EC50 not resolved, read-out: Parasite EC50 - pyruvate) was found to be 2900 ± 640 nM. The “effect on clinical score, overall survival, cerebral malaria (in words)” value in the data set on P. berghei ANKA is listed as “no more effective than 2-DG; also recorded: does not prevent cerebral malaria”. Also, in the data set with P. falciparum strain 3D7 (MetHb EC50 / parasite EC50, with pyruvate), the “S.I. + pyruvate (Supplemental Table 4)” value is on record as 1.5. The “S.I. - pyruvate (Supplemental Table 4)” value with P. falciparum strain 3D7 (MetHb EC50 / parasite EC50, without pyruvate) stood at 0.4. Also, in the data set on P. falciparum strain 3D7 (change in S.I. with versus without pyruvate), the “S.I. Fold Change (Supplemental Table 4)” value is listed as 3.7. Moreover, the “T.I. Fold change” value with P. falciparum strain 3D7 (change in T.I. with versus without 1mM pyruvate) is recorded as 3.7. The “T.I. + pyruvate” value in the data set on P. falciparum strain 3D7 (therapeutic index = [EC50 for MetHb formation]/[EC50 for parasite growth inhibition], with 1mM pyruvate) is listed as 1.5. Also, in the data set on P. falciparum strain 3D7 (therapeutic index = [EC50 for MetHb formation]/[EC50 for parasite growth inhibition], without pyruvate), the T.I. - pyruvate is on record as 0.4. Also, in data set [5], the “effect on parasite burden (in words)” value is “does not forestall a lethal parasite burden”.
